From ChEMBL document CHEMBL4138174, “Design and synthesis of novel C14-urea-tetrandrine derivatives with potent anti-cancer activity” (Eur J Med Chem, 2018)

Columns and labels:
Assay type in all cases: functional, cell-based
[1] = test system: MDA-MB-231; experiment: Cytotoxicity against human MDA-MB-231 cells assessed as reduction in cell viability after 48 hrs by MTT assay
[2] = Cytotoxicity against human WM9 cells assessed as reduction in cell viability after 48 hrs by MTT assay
[3] = test system: PC-3; experiment: Cytotoxicity against human PC3 cells assessed as reduction in cell viability after 48 hrs by MTT assay
[4] = test system: K562; experiment: Cytotoxicity against human K562 cells assessed as reduction in cell viability after 48 hrs by MTT assay
[5] = test system: HEL; experiment: Cytotoxicity against human HEL cells assessed as reduction in cell viability after 48 hrs by MTT assay

Row | SMILES | IC50 ([1]; Homo sapiens, MDA-MB-231, 48 h) | IC50 ([2]; Homo sapiens, WM9, 48 h) | IC50 ([3]; Homo sapiens, PC-3, 48 h) | IC50 ([4]; Homo sapiens, K562, 48 h) | IC50 ([5]; Homo sapiens, HEL, 48 h) | IC50 ([3]; pc-3) | IC50 ([1]; mda-mb-231) | IC50 [2] | IC50 ([4]; k562) | IC50 ([5]; hel)
1 | COc1cc(NC(=O)N2CCOCC2)c2cc1Oc1ccc(cc1)C[C@H]1c3cc(c(OC)cc3CCN1C)Oc1c(OC)c(OC)cc3c1[C@H](C2)N(C)CC3 | 7.29 µM | 5.54 µM | 3.78 µM | 4.33 µM | 4.67 µM | – | – | – | – | –
2 | COc1cc(NC(=O)Nc2ccc([N+](=O)[O-])cc2)c2cc1Oc1ccc(cc1)C[C@H]1c3cc(c(OC)cc3CCN1C)Oc1c(OC)c(OC)cc3c1[C@H](C2)N(C)CC3 | 5.12 µM | 4.65 µM | 6.85 µM | 1.84 µM | 6.54 µM | – | – | – | – | –
3 | COc1cc(NC(=O)Nc2ccc(F)cc2)c2cc1Oc1ccc(cc1)C[C@H]1c3cc(c(OC)cc3CCN1C)Oc1c(OC)c(OC)cc3c1[C@H](C2)N(C)CC3 [listing 1 of 2 here] | 5.02 µM | 4.19 µM | – | 1.81 µM | 4.46 µM | 2.07 µM | – | – | – | –
4 | CNC(=S)Nc1cc(OC)c2cc1C[C@H]1c3c(cc(OC)c(OC)c3Oc3cc4c(cc3OC)CCN(C)[C@H]4Cc3ccc(cc3)O2)CCN1C | 13.6 µM | 7.37 µM | 6.43 µM | 7.35 µM | 9.19 µM | – | – | – | – | –
5 | COc1cc(NC(=O)Nc2ccc(Cl)c(C(F)(F)F)c2)c2cc1Oc1ccc(cc1)C[C@H]1c3cc(c(OC)cc3CCN1C)Oc1c(OC)c(OC)cc3c1[C@H](C2)N(C)CC3 | 10.1 µM | 3.1 µM | 4.7 µM | 2.05 µM | 5.41 µM | – | – | – | – | –
6 | CNC(=O)Nc1cc(OC)c2cc1C[C@H]1c3c(cc(OC)c(OC)c3Oc3cc4c(cc3OC)CCN(C)[C@H]4Cc3ccc(cc3)O2)CCN1C | 14.5 µM | 3.09 µM | 1.71 µM | 9.21 µM | 9.42 µM | – | – | – | – | –
7 | CCCNC(=O)Nc1cc(OC)c2cc1C[C@H]1c3c(cc(OC)c(OC)c3Oc3cc4c(cc3OC)CCN(C)[C@H]4Cc3ccc(cc3)O2)CCN1C | 6.31 µM | 4.83 µM | 0.73 µM | 5.09 µM | 4.79 µM | – | – | – | – | –
8 | COc1cc(NC(=O)NC2CCCC2)c2cc1Oc1ccc(cc1)C[C@H]1c3cc(c(OC)cc3CCN1C)Oc1c(OC)c(OC)cc3c1[C@H](C2)N(C)CC3 | 13.2 µM | 6.45 µM | 1.76 µM | 6.42 µM | 11.6 µM | – | – | – | – | –
9 | COc1cc(NC(=S)NC(C)C)c2cc1Oc1ccc(cc1)C[C@H]1c3cc(c(OC)cc3CCN1C)Oc1c(OC)c(OC)cc3c1[C@H](C2)N(C)CC3 | 5.57 µM | 3.63 µM | 2.1 µM | 3.19 µM | 4.22 µM | – | – | – | – | –
10 | CCCCNC(=S)Nc1cc(OC)c2cc1C[C@H]1c3c(cc(OC)c(OC)c3Oc3cc4c(cc3OC)CCN(C)[C@H]4Cc3ccc(cc3)O2)CCN1C | – | – | – | – | – | 1.05 µM | 3.24 µM | 2.84 µM | 2.02 µM | 1.96 µM
11 | COc1cc(NC(=O)N2c3ccccc3Sc3ccccc32)c2cc1Oc1ccc(cc1)C[C@H]1c3cc(c(OC)cc3CCN1C)Oc1c(OC)c(OC)cc3c1[C@H](C2)N(C)CC3 | 4.14 µM | 3.21 µM | 2.95 µM | 2.49 µM | 3.32 µM | – | – | – | – | –
12 | CCCCNC(=O)Nc1cc(OC)c2cc1C[C@H]1c3c(cc(OC)c(OC)c3Oc3cc4c(cc3OC)CCN(C)[C@H]4Cc3ccc(cc3)O2)CCN1C [listing 1 of 2 here] | – | – | – | – | – | 0.68 µM | 5.28 µM | 3.66 µM | 2.77 µM | 2.67 µM
13 | COc1cc(NC(=S)Nc2ccc(F)cc2)c2cc1Oc1ccc(cc1)C[C@H]1c3cc(c(OC)cc3CCN1C)Oc1c(OC)c(OC)cc3c1[C@H](C2)N(C)CC3 | – | – | – | – | – | 0.33 µM | 1.56 µM | 1.63 µM | 0.88 µM | 1.38 µM
14 | COc1cc(NC(=O)N2CCN(S(C)(=O)=O)C2=O)c2cc1Oc1ccc(cc1)C[C@H]1c3cc(c(OC)cc3CCN1C)Oc1c(OC)c(OC)cc3c1[C@H](C2)N(C)CC3 | 4.33 µM | 3.76 µM | 2.17 µM | 3.06 µM | 5.51 µM | – | – | – | – | –
15 | COc1ccc(NC(=O)Nc2cc(OC)c3cc2C[C@H]2c4c(cc(OC)c(OC)c4Oc4cc5c(cc4OC)CCN(C)[C@H]5Cc4ccc(cc4)O3)CCN2C)cc1 | 10.2 µM | 5.01 µM | 4.67 µM | 3.22 µM | 6.65 µM | – | – | – | – | –
16 | COc1cc(NC(=O)Nc2ccc(C(F)(F)F)cc2)c2cc1Oc1ccc(cc1)C[C@H]1c3cc(c(OC)cc3CCN1C)Oc1c(OC)c(OC)cc3c1[C@H](C2)N(C)CC3 | 5.35 µM | 4.15 µM | 5.2 µM | 1.74 µM | 4.74 µM | – | – | – | – | –
17 | CCCCNC(=O)Nc1cc(OC)c2cc1C[C@H]1c3c(cc(OC)c(OC)c3Oc3cc4c(cc3OC)CCN(C)[C@H]4Cc3ccc(cc3)O2)CCN1C [listing 2 of 2 here] | 5.4 µM | 5.12 µM | 0.88 µM | – | 4.53 µM | – | – | – | 6.88 µM | –
18 | CCNC(=O)Nc1cc(OC)c2cc1C[C@H]1c3c(cc(OC)c(OC)c3Oc3cc4c(cc3OC)CCN(C)[C@H]4Cc3ccc(cc3)O2)CCN1C | 5.83 µM | 2.31 µM | 0.98 µM | 3.2 µM | 4.02 µM | – | – | – | – | –
19 | COc1ccc(NC(=S)Nc2cc(OC)c3cc2C[C@H]2c4c(cc(OC)c(OC)c4Oc4cc5c(cc4OC)CCN(C)[C@H]5Cc4ccc(cc4)O3)CCN2C)cc1 | 7.4 µM | 5.4 µM | 5.27 µM | 2.69 µM | 7.38 µM | – | – | – | – | –
20 | COc1cc(NC(=S)Nc2ccc(Cl)cc2)c2cc1Oc1ccc(cc1)C[C@H]1c3cc(c(OC)cc3CCN1C)Oc1c(OC)c(OC)cc3c1[C@H](C2)N(C)CC3 | 4.35 µM | 6.93 µM | 6.08 µM | 2.43 µM | 7.18 µM | – | – | – | – | –
21 | COc1cc(NC(=O)Nc2cccc(C)c2)c2cc1Oc1ccc(cc1)C[C@H]1c3cc(c(OC)cc3CCN1C)Oc1c(OC)c(OC)cc3c1[C@H](C2)N(C)CC3 | 10.4 µM | 5.07 µM | 3.15 µM | 2.15 µM | 4.86 µM | – | – | – | – | –
22 | COc1ccc2cc1Oc1ccc(cc1)C[C@H]1c3cc(c(OC)cc3CCN1C)Oc1c(OC)c(OC)cc3c1[C@H](C2)N(C)CC3 | – | – | – | – | – | 4.45 µM | 13.6 µM | 7.39 µM | 8.87 µM | 10.1 µM
23 | COc1cc(NC(=O)Nc2ccc(F)cc2)c2cc1Oc1ccc(cc1)C[C@H]1c3cc(c(OC)cc3CCN1C)Oc1c(OC)c(OC)cc3c1[C@H](C2)N(C)CC3 [listing 2 of 2 here] | – | – | – | – | – | 0.77 µM | 3.06 µM | 3.49 µM | 0.93 µM | 2.58 µM
24 | COc1cc(NC(=S)Nc2ccc(C)cc2)c2cc1Oc1ccc(cc1)C[C@H]1c3cc(c(OC)cc3CCN1C)Oc1c(OC)c(OC)cc3c1[C@H](C2)N(C)CC3 | 3.61 µM | 5.52 µM | 5.36 µM | 2.23 µM | 6.04 µM | – | – | – | – | –
25 | COc1cc(NC(=O)Nc2cccc(Cl)c2)c2cc1Oc1ccc(cc1)C[C@H]1c3cc(c(OC)cc3CCN1C)Oc1c(OC)c(OC)cc3c1[C@H](C2)N(C)CC3 | 9.06 µM | 3.16 µM | 4.54 µM | 2.02 µM | 6.47 µM | – | – | – | – | –
26 | COc1cc(NC(=O)NC(C)(C)C)c2cc1Oc1ccc(cc1)C[C@H]1c3cc(c(OC)cc3CCN1C)Oc1c(OC)c(OC)cc3c1[C@H](C2)N(C)CC3 | 12.6 µM | 5.37 µM | 2.97 µM | 4.89 µM | 11.9 µM | – | – | – | – | –
